From PMC10120551, “Novel Glu-based pyrazolo[3,4-d]pyrimidine analogues: design, synthesis and biological evaluation as DHFR and TS dual inhibitors” (Journal of Enzyme Inhibition and Medicinal Chemistry, 2023)
Like-named read-outs stand apart in the source and are kept apart here.

What was measured:
786-0 = assay: NCI one-dose screen (SRB); type: cell-based, human; settings: 786-0, Renal; 10 µM single dose
Description: (§1) The growth percentage (G%) and cell viability of the herein target compounds 6a–l, 7a,b, and 9a–c have been screened towards a full panel of 59 cancer cells at NCI’s Developmental Therapeutics Program (NCI-DTP, MD, USA)[21]. The submitted analogues were initially examined for preliminary in vitro anticancer activity using sulforhodamine B (SRB) assay at 10 µM as a single dose to evaluate cell growth and viability according to the procedure of Drug Evaluation Branch[22]^,[23].
(§2) Different types of tumours – colon, NSCLC, leukaemia, CNS, renal, breast, ovarian, melanoma, and prostate cancers – were investigated as a full panel of 59 cell lines, and the attained results are cited in Figures S1–S17 (see Supplementary Material) where the value recorded is the growth relative to that of both the negative control and zero-time number of cells in which both growth inhibition (GI%; 0–100%) and lethality (L%; 0–100%) percentages can be identified. The growth inhibition means percentages (MGI%) for the examined target analogues towards the different treated 59 cancer cells were presented in Figure 2.
(§3) The designed analogues were submitted to NCI-Chemotherapeutic Agents Repository (MD, USA) for screening on a panel of 59 cancer cell lines. All compounds were initially examined at 10 µM concentration (Single-Dose Screen), and then the most efficient analogue 6i was screened further at 0.01–100 µM (Five-Dose Screen). The screening procedures were performed according to NCI-Drug Evaluation Branch protocol using SRB protein assay, as described previously[21]^,[66]. The experimental procedures were detailed in the Supporting Information.

A549/ATCC [1] = assay: NCI one-dose screen (SRB); type: cell-based, human; settings: NSCLC, 10 µM single dose
Description: as §1, §2, §3

CCRF-CEM = assay: NCI one-dose screen (SRB); type: cell-based, human; settings: Leukaemia, 10 µM single dose
Description: as §1, §2, §3

DU-145 = assay: NCI one-dose screen (SRB); type: cell-based, human; settings: DU-145, Prostate; 10 µM single dose
Description: as §1, §2, §3

HOP-62 = assay: NCI one-dose screen (SRB); type: cell-based, human; settings: HOP-62, NSCLC; 10 µM single dose
Description: as §1, §2, §3

HT29 [2] = assay: NCI one-dose screen (SRB); type: cell-based, human; settings: HT29, Colon cancer; 10 µM single dose
Description: as §1, §2, §3

LOX IMVI [3] = assay: NCI one-dose screen (SRB); type: cell-based, human; settings: Melanoma, 10 µM single dose
Description: as §1, §2, §3

MCF7 [4] = assay: NCI one-dose screen (SRB); type: cell-based, human; settings: MCF7, Breast; 10 µM single dose
Description: as §1, §2, §3

MDA-MB-435 = assay: NCI one-dose screen (SRB); type: cell-based, human; settings: MDA-MB-435, Melanoma; 10 µM single dose
Description: as §1, §2, §3

NCI-H522 = assay: NCI one-dose screen (SRB); type: cell-based, human; settings: NCI-H522, NSCLC; 10 µM single dose
Description: as §1, §2, §3

OVCAR-8 = assay: NCI one-dose screen (SRB); type: cell-based, human; settings: OVCAR-8, Ovarian; 10 µM single dose
Description: as §1, §2, §3

PC-3 = assay: NCI one-dose screen (SRB); type: cell-based, human; settings: PC-3, Prostate; 10 µM single dose
Description: as §1, §2, §3

SF-268 = assay: NCI one-dose screen (SRB); type: cell-based, human; settings: SF-268, CNS; 10 µM single dose
Description: as §1, §2, §3

SF-295 = assay: NCI one-dose screen (SRB); type: cell-based, human; settings: SF-295, CNS; 10 µM single dose
Description: as §1, §2, §3

SK-MEL-5 = assay: NCI one-dose screen (SRB); type: cell-based, human; settings: SK-MEL-5, Melanoma; 10 µM single dose
Description: as §1, §2, §3

HL-60(TB) = settings: Leukaemia, five-dose 0.01–100 µM
COLO 205 = settings: COLO 205, Colon cancer; five-dose 0.01–100 µM
HCT-116 = settings: HCT-116, Colon cancer; five-dose 0.01–100 µM
SW-620 = settings: SW-620, Colon cancer; five-dose 0.01–100 µM
HT29 [5] = settings: HT29, Colon cancer; five-dose 0.01–100 µM
SNB-75 = settings: SNB-75, CNS cancer; five-dose 0.01–100 µM
LOX IMVI [6] = settings: Melanoma, five-dose 0.01–100 µM
SK-MEL-2 = settings: SK-MEL-2, Melanoma; five-dose 0.01–100 µM
UACC-62 = settings: UACC-62, Melanoma; five-dose 0.01–100 µM
TK-10 = settings: TK-10, Renal cancer; five-dose 0.01–100 µM
MCF7 [7] = settings: MCF7, Breast cancer; five-dose 0.01–100 µM
BT-549 = settings: BT-549, Breast cancer; five-dose 0.01–100 µM
T-47D = settings: Breast cancer, five-dose 0.01–100 µM
A549/ATCC [8] = assay: cells; settings: Homo sapiens
SF-539 = assay: cells; settings: Homo sapiens
full NCI 59 cell panel = assay: cells; settings: Homo sapiens

CCOC(=O)CC[C@H](NC(=O)c1ccc(NC(=O)Cn2cnc3c(c(C)nn3-c3ccc(Br)cc3)c2=O)cc1)C(=O)OCC [Compound 6i]
GI% (786-0): 82.93% | GI% (A549/ATCC [1]): 71.36% | GI% (CCRF-CEM): 70.05% | GI% (DU-145): 85.62% | L% (lethality) (HOP-62): 8.41% | GI% (HT29 [2]): 59.90% | GI% (LOX IMVI [3]): 78.49% | GI% (MCF7 [4]): 97.72% | GI% (MDA-MB-435): 57.10% | GI% (NCI-H522): 52.34% | GI% (OVCAR-8): 87.86% | GI% (PC-3): 91.71% | GI% (SF-268): 85.11% | GI% (SF-295): 89.78% | L% (lethality) (SK-MEL-5): 1.38% | TGI (HL-60(TB)): >100 µM | TGI (COLO 205): 36.7 µM | TGI (HCT-116): >100 µM | TGI (SW-620): 44.4 µM | TGI (HT29 [5]): 71.7 µM | TGI (SNB-75): 40.9 µM | TGI (LOX IMVI [6]): 20.6 µM | TGI (SK-MEL-2): 89.1 µM | TGI (UACC-62): 32.1 µM | TGI (TK-10): 86.2 µM | TGI (MCF7 [7]): 16.5 µM | TGI (BT-549): >100 µM | TGI (T-47D): >100 µM | GI50 (A549/ATCC [8]; A549): 9.81 µM | CC50 (A549/ATCC [8]; A549, read-out: LC50): > 100 µM | GI50 (SF-539; SF-539): 14.8 µM | CC50 (SF-539; SF-539, read-out: LC50): 73.6 µM | GI50 (full NCI 59 cell panel; range over HOP-62, A549/ATCC, HOP-92, NCI-H23, NCI-H226, SF-268, HCT-116, OVCAR-8, LOX IMVI, DU-145, PC-3, 786-0, BT-549, MCF7): 3.93 to 9.85 µM | GI50 (full NCI 59 cell panel; range over the residual examined cell lines): 10.1 to 71 µM | CC50 (full NCI 59 cell panel; read-out: LC50, most of the examined cancer cells): > 100 µM | CC50 (full NCI 59 cell panel; read-out: LC50, range over the 23 cell lines listed in b28 as exceptions): 47 to 96.1 µM
